Assay results reported in patent US7932022B2, “Dual-labeled molecular constructs for detection of biochemical reactions” (BioArray Solutions, Ltd., priority 2002, dated 2011).
Where two headings read alike, the source gives them in different places. Where no end group is shown, it is not given here. [ ]: non-standard residue; d: D form. The star is where a group is joined. Biotin = O=C1N[C@H]2[C@H](CS[C@H]2CCCCC(=O)*)N1; pY = N[C@@H](Cc1ccc(OP(=O)(O)O)cc1)C(=O)O

Columns and labels:
[1] = test system: phosphorylated peptide-specific monoclonal mouse IgG antibodies; conditions: three-antibody detection, six bead types
[2] = test system: monoclonal antibodies specific for the phosphorylation modification; conditions: tyramide detection
Text: […]

[3] = test system: phosphorylated peptide-specific monoclonal mouse IgG antibodies; conditions: three-antibody detection
Text: After coupling, the particles were washed by using PBST. Then, all of the peptide-functionalized beads were combined into a test tube for assembly of microparticle array according to known prior art methods, such as LEAPS, and direct disposition assembly method previously described in Provisional Application Ser. No. 60/343,621, filed Dec. […] The assembled microparticle array is blocked by using 1% BSA in PBST. For immunodetection of phosphorylated peptides on the array, the chip is incubated with monoclonal antibodies specific for the phosphorylation modification. The incubation is carried out in a humid chamber for binding of the antibodies to the phosphorylated peptides. The unbound antibodies are washed away by using PBST. For the purpose of signal amplification, the chip is incubated with secondary antibodies specific for the primary monoclonal antibodies bound on the arrays. The signal may be further amplified by incubation of the chips with fluorescent-labeled antibodies specific for the secondary antibodies. After washing with PBST, the array is examined by using a fluorescent microscope according to known prior art methods, such as the READ assays.
The peptide-functionalized microparticles are assembled into a particle array. The chip was incubated with phosphorylated peptide-specific monoclonal mouse IgG antibodies followed by incubation with mouse IgG-specific secondary antibodies, and then Cy5-labeled third antibodies for detection using a fluorescent microscope. Fluorescence was detected by Cy5 signals. […] The error bars in FIG. 22 represent standard deviation of the respective mean intensities.

Row | Substance | Cy5 signal intensity at 1000 ms integration [1] | FITC signal intensity at 1000 ms integration [2] | Cy5 signal intensity at 1000 ms integration [3]
1 | Biotin-CEGPWLEEEEEA[pY]GWMDFK-Biotin [Peptide-P-2] | approximately 14,000 units | 15,000 units | 15,500 units
2 | Biotin-CKVEKIGEGT[pY]GVVYK [Peptide-P-1] | approximately 14,000 units |  | 
3 | Biotin-CRRLIEDAE[pY]AARGK [Peptide-P-3] | approximately 14,000 units |  | 
4 | Biotin-KVEKIGEGTYGVVYK [Ty-1] | approximately 1000 units | approximately 700 units | approximately 1400 units
5 | Biotin-KVEKIGEGT[pY]GVVYK [Ty-P-1] | approximately 14,000 units | 11,000 units | 15,000 units
